Data taken from patent publication US11806342B2, “Diiodohydroxyquinoline for the treatment of clostridium difficile infection” (Purdue Research Foundation, priority 2019, dated 2023).
Values after ≈ are worked out from the molar mass of the structure shown.

Key:
Format in all cases: cell-based, Clostridium difficile
C. difficile I6 = test: Checkerboard assay, DIHQ with metronidazole or vancomycin
Protocol: (§1) Interactions between diiodohydroxyquinoline and the anticlostridial drugs (metronidazole and vancomycin) against Clostridium difficile clinical isolates. […] The fractional inhibitory concentration index (ΣFIC) was calculated for each interaction. Interactions where the ΣFIC index was ≤0.5 were categorized as synergistic (SYN).

C. difficile P11 [1] = test: as above
Protocol: as §1

C. difficile P30 = test: as above
Protocol: as §1

C. difficile ATCC 1801 = test: as above
Protocol: as §1

C. difficile P19 = test: as above
Protocol: as §1

C. difficile ATCC 9689 [2] = test: as above
Protocol: as §1

C. difficile NR-49281 = test: MIC and MBC, broth microdilution; conditions: Clostridioides difficile, NR49281, C. difficile NR-49281
Protocol: (§2) MIC50 and MIC90 are the minimum concentration of each agent that inhibited growth of 50% and 90% of the tested isolates, respectively. The minimum bactericidal concentration (MBC) of these drugs was tested by plating 5 μL from wells with no growth onto BHIS agar plates. The MBC was categorized as the lowest concentration that reduced bacterial growth by 99.9% MIC50 and MIC90 are the minimum concentration of each agent that inhibited the growth of 50% and 90% of the tested isolates, respectively. The minimum bactericidal concentration (MBC) of these drugs was tested by plating 5 μL from wells with no growth onto BHIS agar plates. The MBC was categorized as the lowest concentration that reduced bacterial growth by 99.9% [29-31].

C. difficile P24 = test: MIC and MBC, broth microdilution; conditions: Clostridioides difficile, C. difficile P24
Protocol: as §2

C. difficile P11 [3] = test: MIC and MBC, broth microdilution; conditions: Clostridioides difficile, C. difficile P11
Protocol: as §2

C. difficile ATCC 43598 = test: MIC and MBC, broth microdilution; conditions: Clostridioides difficile, ATCC43598, C. difficile ATCC 43598
Protocol: as §2

C. difficile NR-49277 = test: MIC and MBC, broth microdilution; conditions: Clostridioides difficile, NR49277, C. difficile NR-49277
Protocol: as §2

C. difficile P1 = test: MIC and MBC, broth microdilution; conditions: Clostridioides difficile, C. difficile P1
Protocol: as §2

C. difficile I2 = test: MIC and MBC, broth microdilution; conditions: Clostridioides difficile, C. difficile I2
Protocol: as §2

C. difficile I4 = test: MIC and MBC, broth microdilution; conditions: Clostridioides difficile, C. difficile I4
Protocol: as §2

C. difficile HM-89 = test: MIC and MBC, broth microdilution; conditions: Clostridioides difficile, HM89, C. difficile HM-89
Protocol: as §2

C. difficile NR-49290 = test: MIC and MBC, broth microdilution; conditions: Clostridioides difficile, NR49290, C. difficile NR-49290
Protocol: as §2

[4] = system: C. difficile ATCC BAA-1870; test: MIC and MBC, broth microdilution; conditions: Clostridioides difficile, ATCCBAA1870, C. difficile ATCC BAA-1870
Protocol: as §2

C. difficile ATCC 700057 = test: MIC and MBC, broth microdilution; conditions: Clostridioides difficile, ATCC700057, C. difficile ATCC 700057
Protocol: as §2

C. difficile P2 = test: MIC and MBC, broth microdilution; conditions: Clostridioides difficile, C. difficile P2
Protocol: as §2

C. difficile I1 = test: MIC and MBC, broth microdilution; conditions: Clostridioides difficile, C. difficile I1
Protocol: as §2

C. difficile P13 = test: MIC and MBC, broth microdilution; conditions: Clostridioides difficile, C. difficile P13
Protocol: as §2

C. difficile NR-49286 = test: MIC and MBC, broth microdilution; conditions: Clostridioides difficile, NR49286, C. difficile NR-49286
Protocol: as §2

C. difficile NR-49284 = test: MIC and MBC, broth microdilution; conditions: Clostridioides difficile, NR49284, C. difficile NR-49284
Protocol: as §2

C. difficile P7 = test: MIC and MBC, broth microdilution; conditions: Clostridioides difficile, C. difficile P7
Protocol: as §2

C. difficile P8 = test: MIC and MBC, broth microdilution; conditions: Clostridioides difficile, C. difficile P8
Protocol: as §2

C. difficile ATCC 9689 [5] = test: MIC and MBC, broth microdilution; conditions: Clostridioides difficile, ATCC9689, C. difficile ATCC 9689
Protocol: as §2

[6] = DIHQ with metronidazole, C. difficile I6
[7] = DIHQ with vancomycin, C. difficile I6
[8] = DIHQ with metronidazole, C. difficile P11
[9] = DIHQ with vancomycin, C. difficile P11
[10] = DIHQ with metronidazole, C. difficile P30
[11] = DIHQ with vancomycin, C. difficile P30
[12] = DIHQ with metronidazole, C. difficile ATCC 1801
[13] = DIHQ with vancomycin, C. difficile ATCC 1801
[14] = DIHQ with metronidazole, C. difficile P19
[15] = DIHQ with vancomycin, C. difficile P19
[16] = DIHQ with metronidazole, C. difficile ATCC 9689
[17] = DIHQ with vancomycin, C. difficile ATCC 9689

Compound: Oc1c(I)cc(I)c2cccnc12 [DIHQ, 5,7-diiodoquinolin-8-ol]
- MIC of DIHQ combined with metronidazole (C. difficile I6; C. difficile I6): 0.125 µg/mL
- MIC of DIHQ combined with vancomycin (C. difficile I6; C. difficile I6): 0.5 µg/mL
- MIC alone (C. difficile I6; C. difficile I6, Table 4): 2 µg/mL
- MIC (C. difficile I6; Clostridioides difficile, C. difficile I6, Table 3, read-out: MIC alone): 2 µg/mL
- Interpretation (C. difficile I6; [6]): SYN (ΣFIC index ≤0.5 is considered synergistic (SYN))
- ΣFIC Index (C. difficile I6; [6]): 0.188
- Interpretation (C. difficile I6; [7]): SYN (ΣFIC index ≤0.5 is considered synergistic (SYN))
- ΣFIC Index (C. difficile I6; [7]): 0.375
- MIC of DIHQ combined with metronidazole (C. difficile P11 [1]; C. difficile P11): 0.125 µg/mL
- MIC of DIHQ combined with vancomycin (C. difficile P11 [1]; C. difficile P11): 0.5 µg/mL
- MIC alone (C. difficile P11 [1]; C. difficile P11, Table 4): 0.5 µg/mL
- MIC (C. difficile P11 [1]; Clostridioides difficile, C. difficile P11, Table 3, read-out: MIC alone): 0.5 µg/mL
- Interpretation (C. difficile P11 [1]; [8]): SYN (ΣFIC index ≤0.5 is considered synergistic (SYN))
- ΣFIC Index (C. difficile P11 [1]; [8]): 0.37
- Interpretation (C. difficile P11 [1]; [9]): ADD (ΣFIC index >0.5 − 1.25 is considered additive (ADD))
- ΣFIC Index (C. difficile P11 [1]; [9]): 1.125
- MIC of DIHQ combined with metronidazole (C. difficile P30; C. difficile P30): 0.06 µg/mL
- MIC of DIHQ combined with vancomycin (C. difficile P30; C. difficile P30): 0.125 µg/mL
- MIC alone (C. difficile P30; C. difficile P30, Table 4): 1 µg/mL
- MIC (C. difficile P30; Clostridioides difficile, C. difficile P30, Table 3, read-out: MIC alone): 1 µg/mL
- Interpretation (C. difficile P30; [10]): SYN (ΣFIC index ≤0.5 is considered synergistic (SYN))
- ΣFIC Index (C. difficile P30; [10]): 0.185
- Interpretation (C. difficile P30; [11]): SYN (ΣFIC index ≤0.5 is considered synergistic (SYN))
- ΣFIC Index (C. difficile P30; [11]): 0.25
- MIC of DIHQ combined with metronidazole (C. difficile ATCC 1801; C. difficile ATCC 1801): 1 µg/mL
- MIC of DIHQ combined with vancomycin (C. difficile ATCC 1801; C. difficile ATCC 1801): 2 µg/mL
- MIC alone (C. difficile ATCC 1801; C. difficile ATCC 1801, Table 4): 4 µg/mL
- MIC (C. difficile ATCC 1801; Clostridioides difficile, ATCC1801, C. difficile ATCC 1801, Table 3, read-out: MIC alone): 4 µg/mL
- Interpretation (C. difficile ATCC 1801; [12]): SYN (ΣFIC index ≤0.5 is considered synergistic (SYN))
- ΣFIC Index (C. difficile ATCC 1801; [12]): 0.37
- Interpretation (C. difficile ATCC 1801; [13]): ADD (ΣFIC index >0.5 − 1.25 is considered additive (ADD))
- ΣFIC Index (C. difficile ATCC 1801; [13]): 0.625
- MIC of DIHQ combined with metronidazole (C. difficile P19; C. difficile P19): 0.06 µg/mL
- MIC of DIHQ combined with vancomycin (C. difficile P19; C. difficile P19): 0.125 µg/mL
- MIC alone (C. difficile P19; C. difficile P19, Table 4): 0.5 µg/mL
- MIC (C. difficile P19; Clostridioides difficile, C. difficile P19, Table 3, read-out: MIC alone): 0.5 µg/mL
- Interpretation (C. difficile P19; [14]): SYN (ΣFIC index ≤0.5 is considered synergistic (SYN))
- ΣFIC Index (C. difficile P19; [14]): 0.24
- Interpretation (C. difficile P19; [15]): SYN (ΣFIC index ≤0.5 is considered synergistic (SYN))
- ΣFIC Index (C. difficile P19; [15]): 0.375
- MIC of DIHQ combined with metronidazole (C. difficile ATCC 9689 [2]; C. difficile ATCC 9689): 0.06 µg/mL
- MIC of DIHQ combined with vancomycin (C. difficile ATCC 9689 [2]; C. difficile ATCC 9689): 0.06 µg/mL
- MIC alone (C. difficile ATCC 9689 [2]; C. difficile ATCC 9689, Table 4): 0.125 µg/mL
- MIC (C. difficile ATCC 9689 [2]; Clostridioides difficile, ATCC9689, C. difficile ATCC 9689, Table 3, read-out: MIC alone): 0.125 µg/mL
- Interpretation (C. difficile ATCC 9689 [2]; [16]): ADD (ΣFIC index >0.5 − 1.25 is considered additive (ADD))
- ΣFIC Index (C. difficile ATCC 9689 [2]; [16]): 0.62
- Interpretation (C. difficile ATCC 9689 [2]; [17]): ADD (ΣFIC index >0.5 − 1.25 is considered additive (ADD))
- ΣFIC Index (C. difficile ATCC 9689 [2]; [17]): 0.625
- MBC (C. difficile NR-49281; read-out: MBC): 0.25 µg/mL (≈ 0.63 µM)
- MIC (C. difficile NR-49281; read-out: MIC): 0.25 µg/mL (≈ 0.63 µM)
- MBC (C. difficile P24; read-out: MBC): 2 µg/mL (≈ 5.04 µM)
- MIC (C. difficile P24; read-out: MIC): 1 µg/mL (≈ 2.52 µM)
- MBC (C. difficile P11 [3]; read-out: MBC): 0.25 µg/mL (≈ 0.63 µM)
- MIC (C. difficile P11 [3]; read-out: MIC): 0.25 µg/mL (≈ 0.63 µM)
- MBC (C. difficile ATCC 43598; read-out: MBC): 1 µg/mL (≈ 2.52 µM)
- MIC (C. difficile ATCC 43598; read-out: MIC): 1 µg/mL (≈ 2.52 µM)
- MBC (C. difficile NR-49277; read-out: MBC): 0.5 µg/mL (≈ 1.26 µM)
- MIC (C. difficile NR-49277; read-out: MIC): 0.5 µg/mL (≈ 1.26 µM)
- MBC (C. difficile P1; read-out: MBC): 0.5 µg/mL (≈ 1.26 µM)
- MIC (C. difficile P1; read-out: MIC): 0.5 µg/mL (≈ 1.26 µM)
- MBC (C. difficile I2; read-out: MBC): 2 µg/mL (≈ 5.04 µM)
- MIC (C. difficile I2; read-out: MIC): 2 µg/mL (≈ 5.04 µM)
- MBC (C. difficile I4; read-out: MBC): 1 µg/mL (≈ 2.52 µM)
- MIC (C. difficile I4; read-out: MIC): 1 µg/mL (≈ 2.52 µM)
- MBC (C. difficile HM-89; read-out: MBC): 1 µg/mL (≈ 2.52 µM)
- MIC (C. difficile HM-89; read-out: MIC): 1 µg/mL (≈ 2.52 µM)
- MBC (C. difficile NR-49290; read-out: MBC): 0.5 µg/mL (≈ 1.26 µM)
- MIC (C. difficile NR-49290; read-out: MIC): 0.25 µg/mL (≈ 0.63 µM)
- MBC ([4]; read-out: MBC): 1 µg/mL (≈ 2.52 µM)
- MIC ([4]; read-out: MIC): 1 µg/mL (≈ 2.52 µM)
- MBC (C. difficile ATCC 700057; read-out: MBC): 0.5 µg/mL (≈ 1.26 µM)
- MIC (C. difficile ATCC 700057; read-out: MIC): 0.5 µg/mL (≈ 1.26 µM)
- MBC (C. difficile P2; read-out: MBC): 0.25 µg/mL (≈ 0.63 µM)
- MIC (C. difficile P2; read-out: MIC): 0.25 µg/mL (≈ 0.63 µM)
- MBC (C. difficile I1; read-out: MBC): 1 µg/mL (≈ 2.52 µM)
- MIC (C. difficile I1; read-out: MIC): 1 µg/mL (≈ 2.52 µM)
- MBC (C. difficile P13; read-out: MBC): 0.5 µg/mL (≈ 1.26 µM)
- MIC (C. difficile P13; read-out: MIC): 0.5 µg/mL (≈ 1.26 µM)
- MBC (C. difficile NR-49286; read-out: MBC): 0.5 µg/mL (≈ 1.26 µM)
- MIC (C. difficile NR-49286; read-out: MIC): 0.25 µg/mL (≈ 0.63 µM)
- MBC (C. difficile NR-49284; read-out: MBC): 0.125 µg/mL (≈ 0.315 µM)
- MIC (C. difficile NR-49284; read-out: MIC): 0.125 µg/mL (≈ 0.315 µM)
- MBC (C. difficile P7; read-out: MBC): 0.5 µg/mL (≈ 1.26 µM)
- MIC (C. difficile P7; read-out: MIC): 0.5 µg/mL (≈ 1.26 µM)
- MBC (C. difficile P8; read-out: MBC): 0.125 µg/mL (≈ 0.315 µM)
- MIC (C. difficile P8; read-out: MIC): 0.125 µg/mL (≈ 0.315 µM)
- MBC (C. difficile ATCC 9689 [5]; read-out: MBC): 0.25 µg/mL (≈ 0.63 µM)
- MIC (C. difficile ATCC 9689 [5]; read-out: MIC): 0.125 µg/mL (≈ 0.315 µM)
